Source: ChEMBL document CHEMBL1201862, “PubChem BioAssay data set” (2004)
Structures can show the parent of a compound that is named as a salt.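 Step 1: Grow cells in 96-well plates. Step 2: Expose to compound for 48 hours at 5 concentrations. Step 3: Interpolate endpoints linearly; if unreached, use highest concentration. Here, GI50 denotes the concentration required for 50% inhibition of growth.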 The source made the active and inactive calls. Cut-off read from the data, not from the text of the source: active = GI50 up to about 1.1 µM and inactive = higher.

Tests used:
Experiment in all cases: DTP human tumour cell line panel, 48 h
[1] = system: DMS-114
[2] = system: SNB-78
[3] = system: RXF 631
[4] = system: M19-MEL
[5] = system: DLD-1
[6] = system: LXFL 529
[7] = system: HOP-18
[8] = system: XF498
[9] = system: MDA-N

OCCN1CCN(CCO)Cc2ccccc2OCCOc2ccccc2C1
GI50 [1]: > 100 µM (inactive) | GI50 [2]: > 100 µM (inactive) | GI50 [3]: > 100 µM (inactive) | GI50 [4]: > 100 µM (inactive) | GI50 [5]: > 100 µM (inactive) | GI50 [6]: 64.4 µM (inactive)

CCn1c(=O)c(C(=O)O)c(Cl)c2cc3c(cc21)OCO3
GI50 [7]: > 100 µM (inactive) | GI50 [8]: > 100 µM (inactive) | GI50 [2]: > 100 µM (inactive) | GI50 [4]: > 100 µM (inactive) | GI50 [5]: > 100 µM (inactive)

CN1c2ccccc2SC2C(c3ccccc3)=NOC21 (stereo unspecified)
GI50 [9]: 22.9 µM (inactive)

CC1CC(C)(O)C2C3(C)CCCC2(COC3=O)C12CCC1(CCOC1=O)O2 (stereo unspecified)
GI50 [7]: > 250 µM (inactive) | GI50 [1]: > 250 µM (inactive) | GI50 [8]: 38.3 µM (inactive) | GI50 [2]: > 250 µM (inactive) | GI50 [4]: > 250 µM (inactive) | GI50 [5]: > 250 µM (inactive)

NCC(=O)N[C@H]1c2ccsc2/C(=N/O)[C@H]1O
GI50 [9]: > 100 µM (inactive)

CCOC(=O)c1csc(NC(=O)C(C)N2CCCCC2)n1 (stereo unspecified)
GI50 [9]: > 100 µM (inactive)

CC1=C(C(=O)NCc2ccccc2)C(c2ccco2)C(C(=O)NCc2ccccc2)=C(C)N1
GI50 [7]: > 100 µM (inactive) | GI50 [1]: 48.5 µM (inactive) | GI50 [8]: > 100 µM (inactive) | GI50 [2]: > 100 µM (inactive) | GI50 [5]: > 100 µM (inactive) | GI50 [6]: 42.6 µM (inactive)

CC1(C)CC(=O)c2c(nc3c4c([nH]c(-c5ccc([N+](=O)[O-])cc5)c24)CC(C)(C)C3)C1
GI50 [9]: 33 µM (inactive)

O=C(C1C(c2ccccc2)N1C(c1ccccc1)c1ccccc1)C1C(c2ccccc2)N1C(c1ccccc1)c1ccccc1 (stereo unspecified)
GI50 [9]: 28.9 µM (inactive)

CN1Cc2cc3c(cc2-c2ccccc21)OCO3
GI50 [7]: > 100 µM (inactive) | GI50 [8]: > 100 µM (inactive) | GI50 [2]: > 100 µM (inactive) | GI50 [4]: > 100 µM (inactive) | GI50 [5]: > 100 µM (inactive) | GI50 [6]: > 100 µM (inactive)

N#Cc1nnn(-c2ccc(Br)cc2)c1O
GI50 [9]: 46.9 µM (inactive)

C/C=C(\C)C(=O)OC1C2C(C)=CC(=O)C(O)C2(C)C2C3(O)OCC24C1OC(=O)C(OC(C)=O)C4C(C)C3O (stereo unspecified)
GI50 [7]: 0.0811 µM (active) | GI50 [1]: 0.0375 µM (active) | GI50 [8]: 0.0396 µM (active) | GI50 [2]: 0.0483 µM (active) | GI50 [4]: 0.0375 µM (active) | GI50 [5]: 0.0375 µM (active)

NC1C(O)C(O)C(CO)OC1n1cc(F)c(=O)[nH]c1=O (stereo unspecified)
GI50 [7]: > 100 µM (inactive) | GI50 [1]: > 100 µM (inactive) | GI50 [2]: > 100 µM (inactive) | GI50 [5]: > 100 µM (inactive) | GI50 [6]: > 100 µM (inactive)

CC(=O)[C@H]1CC[C@@H]2[C@]1(C)CC=C1[C@]23C=C[C@]2(C[C@@H](O)CC[C@]12C)C(C(=O)O)C3C(=O)O (stereo partly specified)
GI50 [9]: > 100 µM (inactive)

Cn1c(=O)c2nc3c(=O)n(C)c(=O)n(CC(N)=O)c3nc2n(C)c1=O
GI50 [9]: > 100 µM (inactive)

CC1(C)N=C(N)N=C(N)N1c1ccc(CCc2ccccc2)cc1
GI50 [7]: 45.7 µM (inactive) | GI50 [1]: 0.647 µM (active) | GI50 [8]: < 0.01 µM (active) | GI50 [2]: 13.6 µM (inactive) | GI50 [4]: 2.84 µM (inactive) | GI50 [5]: 15.7 µM (inactive)

CC(NNC(=O)c1cc[n+]([BH2-]C#N)cc1)c1ccc(Cl)cc1Cl (stereo unspecified)
GI50 [9]: > 100 µM (inactive)

C=CC1(C)CCC2=C(CCC3C(C)(C(=O)OC)CCCC23C)C1=O (stereo unspecified)
GI50 [1]: 15.3 µM (inactive) | GI50 [2]: 18.8 µM (inactive) | GI50 [3]: 16.2 µM (inactive) | GI50 [4]: 18.7 µM (inactive) | GI50 [5]: 18.5 µM (inactive) | GI50 [6]: 18.5 µM (inactive)

Cc1ccc2c(O)cc(-c3sccc3C)nc2n1
GI50 [9]: 0.106 µM (active)

OCC1OC(n2cnc3c2NC=NC[C@H]3O)C(O)C1O (stereo partly specified)
GI50 [7]: 71.3 µM (inactive) | GI50 [1]: > 450 µM (inactive) | GI50 [8]: > 274 µM (inactive) | GI50 [2]: > 450 µM (inactive) | GI50 [4]: > 450 µM (inactive) | GI50 [5]: 300 µM (inactive)

OCCN1c2ccccc2Sc2ccccc21
GI50 [9]: > 10 µM (inactive)

CCOC(=O)CSC(=O)NCCCl
GI50 [1]: > 100 µM (inactive) | GI50 [2]: > 100 µM (inactive) | GI50 [5]: > 100 µM (inactive) | GI50 [6]: > 100 µM (inactive)

COc1ccc(N(CC(=O)O)S(=O)(=O)c2ccccc2)cc1
GI50 [7]: > 100 µM (inactive) | GI50 [8]: > 100 µM (inactive) | GI50 [3]: > 100 µM (inactive) | GI50 [4]: > 100 µM (inactive) | GI50 [5]: > 100 µM (inactive) | GI50 [6]: > 100 µM (inactive)

O=C(Cc1ccccc1)Nc1nc2ccc(Cl)cc2c2nc(-c3ccco3)nn12
GI50 [9]: > 100 µM (inactive)

O=C1Cc2c([nH]c3cc(Br)ccc23)-c2ccccc2N1
GI50 [9]: 30.1 µM (inactive)

CCCCOC(=O)CC(CC(=O)OCCCC)(OC(C)=O)C(=O)OCCCC [ACETYLTRIBUTYL CITRATE]
GI50 [9]: > 170 µM (inactive)

C=C[C@@](C)(/C=C/c1ccc(O)cc1)CCC=C(C)C [BAKUCHIOL]
GI50 [9]: 17.3 µM (inactive)

CC(C)c1oc(=O)cc2c1C(O)C1OC(=O)C3(C)C(O)C4OC4C2(C)C13 (stereo unspecified) [NAGILACTONE]
GI50 [7]: 3.48 µM (inactive) | GI50 [1]: 1.13 µM (inactive) | GI50 [8]: 0.703 µM (active) | GI50 [2]: 6.25 µM (inactive) | GI50 [4]: 1.26 µM (inactive) | GI50 [5]: 1.23 µM (inactive)

C[C@]12CC[C@H](O)CC1=CC[C@@H]1[C@@H]2CC[C@]2(C)C(=O)CC[C@@H]12 [PRASTERONE]
GI50 [9]: > 100 µM (inactive)

Cc1cc(C)c(/C=C2\C(=O)Nc3ccccc32)[nH]1 [SEMAXANIB]
GI50 [9]: > 95.9 µM (inactive)
